In patent US20260263554A1, “COMPOSITION COMPRISING CPNE7 PROTEIN OR CPNE7 PROTEIN-DERIVED PEPTIDE FOR REMOVING REACTIVE OXYGEN SPECIES IN CELLS” (HYSENSBIO CO., LTD, priority 2022, published 2026):

Experiments:
[1] = tested on: H9C2 cells; assay: Amount of living cells by WST-8 in cardiomyocytes; type: cell-based; conditions: H9C2, 1 mM H2O2, 1, 10, 100 and 500 μg/mL Selcopintide, 24 hours; compared to H2O2-only-treated group
Protocol: (§1) Cultured H9C2 cells were seeded into 96-well plates at a density of 3×10^3 cells per well, cultured for 24 hours, and then treated with 1 mM hydrogen peroxide (H2O2) and treated with Selcopintide at concentrations of 1 μg/mL, 10 μg/mL, 100 μg/mL, and 500 μg/mL for 24 hours. Untreated H9C2 cells were used as the control.
(§2) The WST-8 solution was added to each well and allowed to react for 1 hour, and then absorbance was measured at 450 nm using a microplate reader and compared.

[2] = tested on: CCD986SK cells; assay: B-gal staining, cell aging in dermal fibroblasts; type: cell-based; conditions: 1 mM H2O2, Selcopintide 1, 10, 100 and 500 μg/mL, 24 hours, compared to H2O2-only-treated group
Protocol: Cultured CCD986SK cells were seeded into 6-well plates at a density of 1×10^5 cells, cultured for 24 hours, and then treated with 1 mM H2O2 and treated with 1 μg/mL, 10 μg/mL, 100 μg/mL, and 500 μg/mL of Selcopintide. After 24 hours, the cells were fixed with 4% paraformaldehyde.
B-gal staining was performed on the fixed cells for 24 hours to compare the degrees of cell aging. 24 hours after treatment with 1 mM H2O2, a large number of B-gal positive CCD986SK cells were identified.

[3] = tested on: hDPCs; assay: Reactive oxygen species level with DCFDA, confocal microscope; type: cell-based, human; conditions: 1 mM H2O2, 10 μg/mL Selcopintide, imaged for approximately one hour
Protocol: Cultured hDPCs were seeded into 35 mm culture dishes for a confocal microscope at a density of 1×10^5 cells, cultured for 24 hours, and then treated with 1 mM H2O2 and treated with 100 ng/mL of rCPNE7. Then, images were taken for approximately one hour using a confocal microscope.
Cultured hDPCs were seeded into 35 mm culture dishes for a confocal microscope at a density of 1×10^5 cells, cultured for 24 hours, and then treated with 1 mM H2O2 and treated with 10 μg/mL of Selcopintide. Thereafter, images were taken for approximately one hour using a confocal microscope.

[4] = tested on: endogenous antioxidant enzymes in hDPC cells; assay: mRNA levels of endogenous antioxidant enzymes by RT-PCR; type: cell-based, human; conditions: hDPCs, 1 mM H2O2, CPNE7 recombinant protein 100 ng/mL or Selcopintide 10 ug/mL
Protocol: Cultured hDPCs were seeded into 60 mm culture dishes at a density of 4×10^5 cells, cultured for 24 hours, and then treated with 1 mM H2O2 and treated with the CPNE7 recombinant protein (100 ng/mL) and Selcopintide (10 ug/mL). After 30 minutes and one hour, the mRNA levels of Sod1, 2, and 3, catalase, Gpx7, Hmox1, and Txmd1 were checked.

[5] = tested on: CCD986SK cells; assay: Amount of living cells by WST-8 in dermal fibroblasts; type: cell-based; conditions: 1 mM H2O2, 1, 10, 100 and 500 μg/mL Selcopintide, 24 hours, compared to H2O2-only-treated group
Protocol: as §1, with “CCD986SK” for “H9C2”
The WST-8 solution was added to each well and allowed to react for one hour, and then absorbance was measured at 450 nm using a microplate reader and compared.

[6] = tested on: hDPC cells; assay: Amount of living cells by WST-8; type: cell-based, human; conditions: hDPCs, 1 mM H2O2, 1 μg/mL and 10 μg/mL Selcopintide, 24 hours; compared to H2O2-only-treated group
Protocol: as §1, with “Cultured hDPC” for “Cultured H9C2”, “Untreated hDPCs” for “Untreated H9C2 cells”
as §2

[7] = tested on: Human dental pulp cells (hDPCs); assay: Optical microscope observation of hDPCs after H2O2 and test substance; type: cell-based; conditions: 24 hours
Protocol: Human dental pulp cells (hDPCs) were cultured in an α-MEM medium containing 10% FBS under 37° C. and 5% CO2 conditions.
hDPCs were seeded into 35 mm culture dishes at a density of 1×10^5 cells, cultured for 24 hours, treated with H2O2 at a concentration of 5 uM, 100 uM, 1 mM, or 2 mM, respectively, and then treated with 100 ng/ml of a recombinant CPNE7 protein and cultured for 24 hours. After the culture was completed, the cultured cells were washed with PBS, and observed using an optical microscope. At this time, the hDPCs cultured without treating the recombinant CPNE7 protein (rCPNE7) were used as the control.
as §1, with “Cultured hDPC” for “Cultured H9C2”, “into 6-well” for “into 96-well”, “of 1×10^5” for “of 3×10^3”, “Untreated hDPCs” for “Untreated H9C2 cells”

[8] = tested on: hDPCs; assay: Immunofluorescence staining with γ-H2A.X (DNA damage marker); type: cell-based, human; conditions: 1 mM H2O2, 10 μg/mL Selcopintide, 24 hours, vs 1 mM H2O2 group
Protocol: Cultured hDPCs were seeded into 35 mm culture dishes for a confocal microscope at a density of 1×10^5 cells, cultured for 24 hours, and then treated with 1 mM H2O2 and treated with 100 ng/mL of rCPNE7. After 24 hours, the cells were fixed with 4% paraformaldehyde.
Immunofluorescence staining using a γ-H2A.X antibody was performed on the fixed cells to compare intensity.
Cultured hDPCs were seeded into 35 mm culture dishes for a confocal microscope at a density of 1×10^5 cells, cultured for 24 hours, and then treated with 1 mM H2O2 and treated with 10 μg/mL of Selcopintide. After 24 hours, the cells were fixed with 4% paraformaldehyde.

[9] = tested on: dermal fibroblast (CCD986SK) cells; assay: Optical microscope observation of dermal fibroblasts after H2O2 and Selcopintide; type: cell-based; conditions: 24 hours
Protocol: as §1, with “CCD986SK” for “H9C2”, “6-well” for “96-well”, “1×10^5” for “3×10^3”

[10] = tested on: cardiomyocytes (H9C2 cell line); assay: Optical microscope observation of cardiomyocytes after H2O2 and Selcopintide; type: cell-based; conditions: H9C2, 1 mM H2O2, Selcopintide 1, 10, 100 and 500 μg/mL, 24 hours; compared to H2O2-only-treated group
Protocol: as §1, with “6-well” for “96-well”, “1×10^5” for “3×10^3”

[11] = tested on: H9C2 cells; assay: B-gal staining, cell aging in cardiomyocytes; type: cell-based; conditions: H9C2, 1 mM H2O2, Selcopintide 1, 10, 100 and 500 μg/mL, 24 hours; compared to H2O2-only-treated group
Protocol: Cultured H9C2 was seeded into 6-well plates at a density of 1×10^5 cells, cultured for 24 hours, and then treated with 1 mM H2O2 and treated with 1 μg/mL, 10 μg/mL, 100 μg/mL, and 500 μg/mL of Selcopintide. After 24 hours, the cells were fixed with 4% paraformaldehyde.
Next, B-gal staining was performed on the fixed cells for 24 hours to compare the degree of cell aging. 24 hours after treatment with 1 mM H2O2, a large number of B-gal positive H9C2 cells were identified.

[12] = 1 mM H2O2, Selcopintide 1, 10, 100 and 500 μg/mL, compared to H2O2-only-treated group

KYKQKRRSYK (Novel peptide) [Selcopintide]
cell viability (WST-8, absorbance 450 nm) [1]: significantly higher | number of B-gal positive CCD986SK cells [2]: significantly reduced | amount of reactive oxygen species (DCFDA) [3]: decreased and became significant at approximately one hour | mRNA of endogenous antioxidant enzymes Sod1, 2, and catalase ([4]; after 30 minutes, compared to H2O2-only-treated group): significantly increased | mRNA of Sod1 and Gpx7, and Hmox1 and Txrnd1 ([4]; after one hour): significantly increased | cell viability (WST-8, absorbance 450 nm) [5]: significantly higher | cell viability (WST-8, absorbance 450 nm) [6]: significantly higher | cell viability (optical microscope) ([7]; 1 mM H2O2, 1 μg/mL and 10 μg/mL treatment groups): high | cell viability (optical microscope) [7, 12]: higher | accumulation of DNA damage (γ-H2A.X intensity) [8]: significantly reduced | significance of higher cell viability (optical microscope) ([9]; 1 mM H2O2, 1 μg/mL and 10 μg/mL of Selcopintide): highest | cell viability (optical microscope) [9, 12]: higher | cell viability (optical microscope) [10]: higher | number of B-gal positive H9C2 cells [11]: significantly reduced
